In patent US12350350B2, “Hyperpolarisation in aqueous media via sabre” (UNIVERSITY OF YORK, priority 2017, dated 2025):

Assays:
[1] = Solubility in water and organic solvent (stated); conditions: for solubility in organic solvent: CD3Cl or CD2Cl2
[2] = UV monitoring of pz transfer from aqueous phase into chloroform, with and without NaCl; assay type: physicochemical; conditions: H2O layered over equivalent volume of CHCl3
Experimental: Relative rates of pz transfer from the aqueous phase into chloroform were assessed, with, and without NaCl, by UV monitoring as detailed in Figure S100. This involved layering a sample of H2O containing pyrazine over an equivalent volume of CHCl3 that contained no pz.

[3] = UV-vis quality control: catalyst in the aqueous phase after phase separation; assay type: physicochemical; conditions: UV spectrum 10 seconds after mixing, no signal seen
Experimental: A UV spectrum was recorded to monitor the amount of catalyst present in the aqueous phase 10 seconds after mixing. As detailed in Figure S98 no signal is seen which places an upper limit of 1.5×10^−6 mol dm^−3 on the iridium concentration based on [Ir(H)2(IMes)(pz)3]Cl. The sample used mimicked that of 5.1.

Compound | solubility in organic solvent [1] | solubility in water / D2O [1] | further results
Fc1cccnc1 [3-fluoropyridine] | highly soluble in organic solvent |  | 
c1cnccn1 [pyrazine] |  |  | rate of transfer between the phases, effect of NaCl [2]: increase the rate of pz transfer between the phases; relative partitioning between aqueous phase and chloroform, effect of NaCl [2]: unaffected by added NaCl
Nc1ccncc1 [4-aminopyridine] |  | fully water soluble | 
[Ir(H)2(IMes)(pz)3]Cl |  |  | upper limit on iridium concentration in the aqueous phase [3]: ≤ 1.5×10^−6 mol dm^−3

Second part, led by results:

solubility in organic solvent [1] | solubility in water / D2O [1] | Compound | further results
partially soluble in organic solvent | full water soluble | [2H]c1cc([2H])c(C(N)=O)cn1 [d2-nicotinamide] | 
fully soluble in CD3Cl phase | partially soluble in D2O phase | [2H]c1cc([2H])c(C(=O)OC)cn1 [d2-methylnicotinate] | 
